# Entries after “also recorded” stand apart in the source; their conditions may differ. Read-outs that look alike come from different tables or passages of the source.
# Tests used:
# CDK8 = settings: cited from earlier work
# CDK8/CycC = target: T1, CDK8/CycC (Homo sapiens, UniProt P49336); experiment: In vitro kinase inhibition assay (Reaction Biology HotSpot, 10 dose IC50 singlet); format: biochemical; settings: for IC50 / inhibition at 20 µM: CDK8/CycC; for IC50: 10 dose IC50 singlet assay; for inhibition at 20 µM: compound at 20 µM, read-out: % enzyme inhibition ± SD (20 µM)
# T1 construct: purchased Reaction Biology Corp. (Kinase HotSpot service)
# T1 sequence (P49336 whole entry): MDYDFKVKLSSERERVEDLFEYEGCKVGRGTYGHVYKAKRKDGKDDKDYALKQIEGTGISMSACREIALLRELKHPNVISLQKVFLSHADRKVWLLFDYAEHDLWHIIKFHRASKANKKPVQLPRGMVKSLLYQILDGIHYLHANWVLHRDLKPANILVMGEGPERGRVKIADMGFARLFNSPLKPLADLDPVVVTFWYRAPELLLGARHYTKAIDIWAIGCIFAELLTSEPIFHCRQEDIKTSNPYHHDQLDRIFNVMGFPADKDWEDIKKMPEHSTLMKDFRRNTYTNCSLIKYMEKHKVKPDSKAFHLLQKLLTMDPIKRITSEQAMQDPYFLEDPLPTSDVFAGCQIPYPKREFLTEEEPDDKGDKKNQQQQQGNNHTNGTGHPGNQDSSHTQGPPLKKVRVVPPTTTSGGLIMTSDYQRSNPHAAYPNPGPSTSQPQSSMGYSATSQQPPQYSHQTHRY
# T1 sequence (P24863 whole entry partner): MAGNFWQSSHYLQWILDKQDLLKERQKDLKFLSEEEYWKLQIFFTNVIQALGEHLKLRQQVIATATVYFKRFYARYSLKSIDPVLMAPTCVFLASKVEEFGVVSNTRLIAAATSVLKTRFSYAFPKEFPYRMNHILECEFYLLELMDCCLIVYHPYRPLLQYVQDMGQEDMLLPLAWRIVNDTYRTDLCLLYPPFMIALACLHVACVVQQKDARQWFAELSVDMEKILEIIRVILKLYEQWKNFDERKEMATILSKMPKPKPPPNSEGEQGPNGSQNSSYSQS
# Experimental: Reaction Biology Corp. Kinase HotSpotSM service (http://www.reactionbiology.com) was used for the screening of tested compounds. […] Activity of kinases were assessed by the HotSpot assay platform, which contained specific kinase/substrate pairs along with required cofactors ([Abdelazem et al., 2015]; [Abdelazem et al., 2016]; [Al-Sanea et al., 2016a]; [Al-Sanea et al., 2015a]; [Al-Sanea et al., 2015b]; [Al-Sanea, El-Deeb & Lee, 2013]; [Park et al., 2014]).
# The newly prepared phenylaminoquinolines 5a–i were biologically evaluated as potential CDK8/CycC complex inhibitors.
# [1] = test system: acute myeloid leukemia (AML); set-up: method as in earlier work; settings: ref Cee et al., 2009, Crown, 2017, Pelish et al., 2015, Rzymski et al.; cited from earlier work
smiles,measurement,setting,value
CN1CCN(C(=O)c2ccc3cc(CCNc4ncnc5ccc(C#N)cc45)ccc3c2)CC1 [Senexin B],IC50,"CDK8; ref McDermott et al., 2017, Rzymski et al., 2015, read-out: CDK8 modulation IC50",0.024 µM
"CCOC(=O)c1cnc2ccc(OC)cc2c1Nc1cccc(S(N)(=O)=O)c1 [5b, Ethyl 6-methoxy-4-((3-sulfamoylphenyl)amino)quinoline-3-carboxylate]",IC50,CDK8/CycC,single digit micromolar potency
same,IC50,CDK8/CycC; read-out: IC50,5.34 µM
same,inhibition at 20 µM,CDK8/CycC,63.4 ± 2.31%
"CCOC(=O)c1cnc2ccc(Br)cc2c1Nc1cccc(S(=O)(=O)NC)c1 [5d, Ethyl 6-Bromo-4-((3-(N-methylsulfamoyl)phenyl)amino)quinoline-3-carboxylate]",melting point,,212.9 to 214.3 °C
same,IC50,CDK8/CycC; read-out: IC50,0.639 µM
same,inhibition at 20 µM,CDK8/CycC,88.6 ± 0.97%
"CCOC(=O)c1cnc2cc(Cl)c(F)cc2c1Nc1cccc(NS(C)(=O)=O)c1 [5f, Ethyl 7-chloro-6-fluoro-4-((3-(methylsulfonamido)phenyl)amino)quinoline-3-carboxylate]",IC50,CDK8/CycC,failed to inhibit; also recorded: No inhibition
same,inhibition at 20 µM,CDK8/CycC,27.2 ± 8.46%
CN(C)[C@H]1C[C@@]23CC[C@@]4(O2)C(=CC[C@]2(C)[C@@H](c5ccc6ccncc6c5)CC[C@H]24)C=C3[C@@H](O)[C@@H]1O [cortistatin A],anticancer activity in animal models of AML,[1],exhibited anticancer activity
same,IC50,"CDK8; ATP-competitive, ref Cee et al., 2009, Crown, 2017, Pelish et al., 2015, Rzymski et al., read-out: CDK8 inhibitory activity IC50",0.015 µM
"CCOC(=O)c1cnc2cc(Cl)c(F)cc2c1Nc1cccc(S(C)(=O)=O)c1 [5i, Ethyl 7-chloro-6-fluoro-4-((3-(methylsulfonyl)phenyl)amino)quinoline-3-carboxylate]",IC50,CDK8/CycC,failed to inhibit; also recorded: No inhibition
same,inhibition at 20 µM,CDK8/CycC,32 ± 0.82%
"CCOC(=O)c1cnc2ccc(Br)cc2c1Nc1cccc(S(N)(=O)=O)c1 [5a, Ethyl 6-Bromo-4-(3-sulfamoyl-phenylamino)-quinoline-3-carboxylate]",melting point,,235.6 to 237.2 °C
same,fold decrease in potency relative to 5d,CDK8/CycC; CDK8/CycC IC50 of 5a compared with 5d,6 fold
same,IC50,CDK8/CycC,single digit micromolar potency
same,IC50,CDK8/CycC; read-out: IC50,3.98 µM
same,inhibition at 20 µM,CDK8/CycC,83.9 ± 1.83%
"CCOC(=O)c1cnc2ccc(OC)cc2c1Nc1cccc(NS(C)(=O)=O)c1 [5e, Ethyl 6-methoxy-4-((3-(methylsulfonamido)phenyl)amino)quinoline-3-carboxylate]",IC50,CDK8/CycC; read-out: IC50,1.42 µM
same,inhibition at 20 µM,CDK8/CycC,85.9 ± 0.94%
"CCOC(=O)c1cnc2ccc(OC)cc2c1Nc1cccc(S(C)(=O)=O)c1 [5h, Ethyl 6-methoxy-4-((3-(methylsulfonyl)phenyl)amino)quinoline-3-carboxylate]",IC50,CDK8/CycC,No inhibition
same,inhibition at 20 µM,CDK8/CycC,18.7 ± 0.48%
"CCOC(=O)c1cnc2ccc(Br)cc2c1Nc1cccc(S(C)(=O)=O)c1 [5g, Ethyl 6-Bromo-4-(3-methanesulfonylphenylamino)-quinoline-3-carboxylate]",IC50,CDK8/CycC,no CDK8/CycC complex inhibitory activity; also recorded: No inhibition
same,inhibition at 20 µM,CDK8/CycC,22.4 ± 1.02%
"CCOC(=O)c1cnc2cc(Cl)c(F)cc2c1Nc1cccc(S(N)(=O)=O)c1 [5c, Ethyl 7-chloro-6-fluoro-4-((3-sulfamoylphenyl)amino)quinoline-3-carboxylate]",IC50,CDK8/CycC,failed to inhibit
same,inhibition at 20 µM,CDK8/CycC,37.9 ± 1.31%
